Test results reported in patent US9963474B2, “Mitochondria-targeted dicarbonyl sequestering compounds” (MEDICAL RESEARCH COUNCIL, priority 2013, dated 2018).

Key:
[1] = tested on: RLM respiring on glutamate/malate; experiment: Protection against dicarbonyl-induced respiratory depression in isolated RLM; design: species or system rat; conditions: 37° C.
Description: Isolated RLM respiring on glutamate/malate were incubated with MitoG, methoxyphenylenediamine (MP) or butylTPP for 2 min, followed by 0.5 mM methylglyoxal or 5 mM glyoxal for 5 min. ADP was then added and the rate of oxygen consumption monitored at 37° C. (see FIGS. 12A & 12B). C2C12 cells were pre-treated with MitoG, methoxyphenylenediamine (MP) or butylTPP for 1 h before exposure to 1 mM methylglyoxal or 5 mM glyoxal (see FIGS. 12C & 12D). Following an overnight incubation, cell survival was determined using the MTS assay. Similar experiments were conducted in BAECs pre-treated with MitoG, MP or butylTPP. For all experiments, concentrations of methylglyoxal and glyoxal used were chosen based on results from studies conducted prior to the protection assays. In these prior studies, RLM or cells were exposed to a range of dicarbonyl concentrations, and the phosphorylating rates of respiration or cell survival were evaluated. The results of these earlier experiments are shown in insets, and dicarbonyl concentrations that had caused significant respiratory depression or cell death were chosen for use in the protection assays. Data for all groups were normalized against untreated controls. For RLM, the rate of respiration by untreated controls was taken to be 100%; for cells, cell survival of untreated controls was taken to be 100%. Results are expressed as mean±S.E. of three independent experiments. MitoG was protective against methylglyoxal-induced respiratory depression and both methylglyoxal- and glyoxal-induced cell death in C2C12 cells and BAECs. […] In FIG. 12 the symbols *, ** respectively indicate that P<0.05 or P<0.01 relative to dicarbonyl-only groups; and the symbols +, ++ respectively indicate that P<0.05 or P<0.01 relative to untreated controls.

[2] = Reaction rate with glyoxal (fluorometric kinetics); conditions: 37° C., means±SE, n=3
Description: (A) The reactions between MitoG (100 μM) and 1,2-dicarbonyls (25 μM) at 37° C. were followed from the formation of the quinoxaline products at 345 nm. (B) Fluorimetric detection of the reaction between MitoG and methylglyoxal (40 μM each), and between MitoG and glyoxal (200 μM each) was observed by monitoring the quinoxaline products at excitation and emission wavelengths of 344 and 433 nm, respectively. The changes in fluorescence caused by MQE and QE formation was quantified from calibration curves constructed by plotting fluorescence (excitation and emission wavelengths of 344 and 433 nm, respectively) against known amounts of either quinoxaline and were linear up to at least 20 μM.
TPP-conjugated compounds were made up as 10 mM stock solutions in DMSO, flushed with argon and stored as aliquots at −20° C. […] The molar extinction coefficients were calculated from the absorbance at maximal absorption (λmax) for the compounds for solutions of known concentration. Reaction rates between MitoG and 1,2-dicarbonyls were determined from the initial linear slope over the first 30 s at the λmax for the formation of the relevant quinoxaline. Fluorescence spectra were obtained in 2.5 ml KCl buffer using a Shimadzu RF-301PC fluorimeter with slit widths of 3 nm. […]

Nc1ccc(OCCCCCC[P+](c2ccccc2)(c2ccccc2)c2ccccc2)cc1N [MitoG, (6-(3,4-Diaminophenoxy)hexyl)triphenylphosphonium chloride]
protection against methylglyoxal-induced respiratory depression ([1]; 0.5 mM methylglyoxal): protected against methylglyoxal-induced respiratory depression in isolated RLM in a dose-dependent manner | protection against glyoxal-induced respiratory depression ([1]; 5 mM glyoxal): did not prevent glyoxal damage | rate constant for reaction with glyoxal [2]: 0.6 ± 0.3 M⁻¹ s⁻¹
